Test results: the supplement of paper PMC8612539

Legend:
Mannheimia haemolytica = assay: minimum inhibitory concentration (MIC)
Description: (§1)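 Broth microdilution MIC (Sensititre BOPO7F bovine plate, CLSI methods) of 19 antimicrobials against field isolates of P. multocida, M. haemolytica, H. somni (deep nasopharyngeal swabs) and E. coli, Enterococcus spp. (rectal swabs) from weaned dairy heifers. Incubation 16-24 h at 35 C. MIC is the lowest concentration preventing visible growth. Values with <= or > lie at the tested range limits. Trimethoprim-sulfamethoxazole is given as the trimethoprim component of a 1:19 mixture.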

Enterococcus spp. = assay: minimum inhibitory concentration (MIC)
Description: as §1

[1] = isolate (source animal id): 298
[2] = isolate (source animal id): 320
[3] = isolate (source animal id): 333

Measured: minimum inhibitory concentration

NC[C@@H]1O[C@H](O[C@H]2[C@@H](O)[C@H](O[C@@H]3[C@@H](O)[C@H](N)C[C@H](N)[C@H]3O[C@H]3O[C@H](CN)[C@@H](O)[C@H](O)[C@H]3N)O[C@@H]2CO)[C@H](N)[C@@H](O)[C@@H]1O [Neomycin]
≤ 4 µg/mL: Mannheimia haemolytica; isolate (source animal id): 300 | Mannheimia haemolytica; isolate (source animal id): 306 | Mannheimia haemolytica; [2] | Enterococcus spp.; isolate (source animal id): 2 | Enterococcus spp.; isolate (source animal id): 239
16 µg/mL: Enterococcus spp.; isolate (source animal id): 92 | Enterococcus spp.; isolate (source animal id): 111 | Enterococcus spp.; isolate (source animal id): 123 | Enterococcus spp.; isolate (source animal id): 169 | Enterococcus spp.; isolate (source animal id): 187 | Enterococcus spp.; isolate (source animal id): 197 | Enterococcus spp.; isolate (source animal id): 223 | Enterococcus spp.; isolate (source animal id): 246 | Enterococcus spp.; isolate (source animal id): 250 | Enterococcus spp.; isolate (source animal id): 282 | Enterococcus spp.; isolate (source animal id): 289 | Enterococcus spp.; isolate (source animal id): 290 | Enterococcus spp.; [1] | Enterococcus spp.; isolate (source animal id): 301 | Enterococcus spp.; [2] | Enterococcus spp.; [3]
32 µg/mL: Enterococcus spp.; isolate (source animal id): 133 | Enterococcus spp.; isolate (source animal id): 168 | Enterococcus spp.; isolate (source animal id): 177 | Enterococcus spp.; isolate (source animal id): 181 | Enterococcus spp.; isolate (source animal id): 182 | Enterococcus spp.; isolate (source animal id): 183 | Enterococcus spp.; isolate (source animal id): 190 | Enterococcus spp.; isolate (source animal id): 195 | Enterococcus spp.; isolate (source animal id): 296
8 µg/mL: Mannheimia haemolytica; isolate (source animal id): 288 | Mannheimia haemolytica; isolate (source animal id): 291 | Mannheimia haemolytica; isolate (source animal id): 308 | Mannheimia haemolytica; isolate (source animal id): 309 | Enterococcus spp.; isolate (source animal id): 88 | Enterococcus spp.; isolate (source animal id): 91 | Enterococcus spp.; isolate (source animal id): 171 | Enterococcus spp.; isolate (source animal id): 194 | Enterococcus spp.; isolate (source animal id): 236 | Enterococcus spp.; isolate (source animal id): 244 | Enterococcus spp.; isolate (source animal id): 268
> 32 µg/mL: Mannheimia haemolytica; isolate (source animal id): 293 | Mannheimia haemolytica; [1] | Mannheimia haemolytica; isolate (source animal id): 299 | Mannheimia haemolytica; isolate (source animal id): 302 | Mannheimia haemolytica; isolate (source animal id): 304 | Mannheimia haemolytica; isolate (source animal id): 313 | Mannheimia haemolytica; isolate (source animal id): 318 | Mannheimia haemolytica; isolate (source animal id): 321 | Mannheimia haemolytica; isolate (source animal id): 323 | Mannheimia haemolytica; isolate (source animal id): 324 | Mannheimia haemolytica; isolate (source animal id): 326 | Mannheimia haemolytica; isolate (source animal id): 328 | Mannheimia haemolytica; isolate (source animal id): 329 | Mannheimia haemolytica; [3] | Mannheimia haemolytica; isolate (source animal id): 335 | Mannheimia haemolytica; isolate (source animal id): 338 | Enterococcus spp.; isolate (source animal id): 35 | Enterococcus spp.; isolate (source animal id): 42 | Enterococcus spp.; isolate (source animal id): 44 | Enterococcus spp.; isolate (source animal id): 79 | Enterococcus spp.; isolate (source animal id): 122 | Enterococcus spp.; isolate (source animal id): 158 | Enterococcus spp.; isolate (source animal id): 175 | Enterococcus spp.; isolate (source animal id): 211 | Enterococcus spp.; isolate (source animal id): 214 | Enterococcus spp.; isolate (source animal id): 222 | Enterococcus spp.; isolate (source animal id): 228 | Enterococcus spp.; isolate (source animal id): 230 | Enterococcus spp.; isolate (source animal id): 235 | Enterococcus spp.; isolate (source animal id): 241 | Enterococcus spp.; isolate (source animal id): 247 | Enterococcus spp.; isolate (source animal id): 252 | Enterococcus spp.; isolate (source animal id): 285 | Enterococcus spp.; isolate (source animal id): 310 | Enterococcus spp.; isolate (source animal id): 331 | Enterococcus spp.; isolate (source animal id): 341
